“And” between values parts separate entries of the source, which are not always exact repeats. Equal entries are not always repeated.
Experiments:
[1] = Cytotoxicity MTT assay, 24 h, PAR cells; type: cell-based; conditions: mouse, parental (PAR) L5178 mouse T-cell lymphoma cells, read-out: Cytotoxic effect IC50
Description: (§1) The cytotoxicity of compounds 7–20 was examined in both aforementioned PAR and MDR mouse T-lymphoma cell lines, using the MTT assay to estimate IC50 values. The selectivity index for cytotoxic action on MDR with respect to PAR cells was calculated (SI, Table 3). […] This range of SI may indicate ABCB1-efflux pump substrate properties for the whole series (7–20), especially distinct in the case of 19 (SI ≤ 0.29), and slightly weaker for 8, 12, 16, and 18.
(§2) L5178 mouse T-cell lymphoma cells (PAR) (ECACC Cat. No. 87111908, obtained from FDA, Silver Spring, MD, USA) were transfected with pHa MDR1/A retrovirus, as previously described by Cornwell et al.. The ABCB1-expressing cell line L5178Y (MDR) was selected by culturing the infected cells with colchicine. The parental L5178 mouse T-cell lymphoma cells and the L5178Y human ABCB1-transfected subline were cultured in McCoy’s 5A medium (Sigma-Aldrich, St Louis, MO, USA) supplemented with 10% heat-inactivated horse serum (Sigma-Aldrich, St Louis, MO, USA), 200 mM L-glutamine (Sigma-Aldrich, St Louis, MO, USA), and a penicillin-streptomycin (Sigma-Aldrich, St Louis, MO, USA) mixture in concentrations of 100 U/L and 10 mg/L, respectively. The cell lines were incubated at 37 °C, in a 5% CO2, 95% air atmosphere.
(§3) Cytotoxicity and antiproliferative assays were performed following the procedure described in the literature. Parental and multidrug-resistant mouse T-lymphoma cells were used to determine the effect of the arylideneimidazolones on the growth of cells. The effects of increasing concentrations of arylideneimidazolones on cell growth were tested in 96-well flat-bottomed microtiter plates. The compounds were diluted in a volume of 100 μL of medium.
(§4) In the case of the mouse T-lymphoma cells, the two-fold serial dilutions were prepared in 100 μL of McCoy’s 5A, horizontally. The parental (PAR) and multidrug-resistant (MDR) mouse T-lymphoma cells were adjusted to a density of 1 × 10^4 cells (for cytotoxic assay) and 6 × 10^3 (for antiproliferative assay) in 100 μL of McCoy’s 5A medium and were added to each well, with the exception of the medium control wells.
(§5) The culture plates were incubated at 37 °C for 24 h (for cytotoxicity assay) and 72 h (for antiproliferative assay); at the end of the incubation period, 20 μL of MTT (thiazolyl blue tetrazolium bromide, Sigma) solution (from a stock solution of 5 mg/mL) were added to each well. After incubation at 37 °C for 4 h, 100 μL of sodium dodecyl sulfate (SDS) (Sigma) solution (10% in 0.01 M HCI) were added to each well and the plates were further incubated at 37 °C overnight. Cell growth was determined by measuring the optical density (OD) at 540/630 nm with a Multiscan EX ELISA reader (Thermo Labsystems, Cheshire, WA, USA).
(§6) Results have been expressed in terms of IC50, defined as the inhibitory dose that reduces the growth of the cells exposed to the tested compounds by 50%, each representing the mean of a minimum of three independent experiments.

[2] = Cytotoxicity MTT assay, 24 h, MDR cells; type: cell-based; conditions: mouse; for IC50 at 24 h: MDR cells, MTT, read-out: Cytotoxic effect IC50; for selectivity ratio at 24 h: cytotoxic action on MDR with respect to PAR cells, read-out: SI (selectivity index), cytotoxicity
Description: as §1, §2, §3, §4, §5, §6

[3] = system: parental (PAR) mouse T-lymphoma cells; experiment: Antiproliferative MTT assay, 72 h, PAR cells; type: cell-based; conditions: read-out: Antiproliferative effect IC50
Description: (§7) The ABCB1-expressing cell line L5178Y (MDR) was selected by culturing the infected cells with colchicine. The parental L5178 mouse T-cell lymphoma cells and the L5178Y human ABCB1-transfected subline were cultured in McCoy’s 5A medium (Sigma-Aldrich, St Louis, MO, USA) supplemented with 10% heat-inactivated horse serum (Sigma-Aldrich, St Louis, MO, USA), 200 mM L-glutamine (Sigma-Aldrich, St Louis, MO, USA), and a penicillin-streptomycin (Sigma-Aldrich, St Louis, MO, USA) mixture in concentrations of 100 U/L and 10 mg/L, respectively.
as §3, §4
(§8) Cell growth was determined by measuring the optical density (OD) at 540/630 nm with a Multiscan EX ELISA reader (Thermo Labsystems, Cheshire, WA, USA).

[4] = system: multidrug-resistant (MDR) mouse T-lymphoma cells; experiment: Antiproliferative MTT assay, 72 h, MDR cells; type: cell-based; conditions: for SI (selectivity index), antiproliferative: MDR with respect to PAR cells; for IC50: Mus musculus, MDR cells, 72 h, MTT, read-out: Antiproliferative effect IC50
Description: as §7, §3, §4, §8

Pgp (ABCB1) ATPase = molecular target: T1, Pgp (ABCB1) ATPase (Homo sapiens, UniProt P08183); experiment: Luminescent Pgp-Glo Assay (Pgp ATPase intrinsic activity); type: biochemical; conditions: 100 µM, 40 min, 37 °C; substrates stimulate basal activity (>100%)
T1 construct: purchased Promega (Madison, WI, USA)
T1 sequence (P08183 whole entry): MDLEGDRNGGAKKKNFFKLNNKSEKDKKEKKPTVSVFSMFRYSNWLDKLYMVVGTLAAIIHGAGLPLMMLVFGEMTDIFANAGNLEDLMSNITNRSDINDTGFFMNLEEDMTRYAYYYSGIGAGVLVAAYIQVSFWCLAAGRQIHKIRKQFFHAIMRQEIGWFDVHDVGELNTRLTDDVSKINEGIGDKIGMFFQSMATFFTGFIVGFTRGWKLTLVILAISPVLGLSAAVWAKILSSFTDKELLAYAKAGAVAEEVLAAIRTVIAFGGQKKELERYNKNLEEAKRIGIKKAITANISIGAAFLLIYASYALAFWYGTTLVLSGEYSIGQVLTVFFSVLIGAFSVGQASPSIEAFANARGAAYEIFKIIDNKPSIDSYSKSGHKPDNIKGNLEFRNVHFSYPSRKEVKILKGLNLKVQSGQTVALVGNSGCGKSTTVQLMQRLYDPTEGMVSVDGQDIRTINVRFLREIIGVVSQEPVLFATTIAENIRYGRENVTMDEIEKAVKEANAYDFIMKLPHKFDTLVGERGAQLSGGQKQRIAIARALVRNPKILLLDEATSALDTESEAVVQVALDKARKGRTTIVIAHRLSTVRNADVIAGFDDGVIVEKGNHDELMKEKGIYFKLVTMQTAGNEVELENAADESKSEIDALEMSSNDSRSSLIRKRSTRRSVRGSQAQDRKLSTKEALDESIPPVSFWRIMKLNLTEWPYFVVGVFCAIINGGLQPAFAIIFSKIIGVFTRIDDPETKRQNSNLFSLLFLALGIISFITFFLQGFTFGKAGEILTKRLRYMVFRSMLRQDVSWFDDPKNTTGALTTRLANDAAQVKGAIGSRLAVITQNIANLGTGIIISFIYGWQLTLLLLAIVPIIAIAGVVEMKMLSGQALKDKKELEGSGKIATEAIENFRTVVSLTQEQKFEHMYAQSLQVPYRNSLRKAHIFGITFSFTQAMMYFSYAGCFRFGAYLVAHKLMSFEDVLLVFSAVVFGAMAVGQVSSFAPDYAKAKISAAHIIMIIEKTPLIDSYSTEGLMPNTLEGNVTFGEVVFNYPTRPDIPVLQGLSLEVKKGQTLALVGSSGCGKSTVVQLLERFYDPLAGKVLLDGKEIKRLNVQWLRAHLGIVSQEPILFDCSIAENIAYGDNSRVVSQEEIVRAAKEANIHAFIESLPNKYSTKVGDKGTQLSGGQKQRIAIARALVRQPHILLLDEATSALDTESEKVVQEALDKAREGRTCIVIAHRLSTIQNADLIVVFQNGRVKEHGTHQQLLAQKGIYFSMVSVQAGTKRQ
Description: Compounds 11, 12, and 18 were tested at 100 µM on their influence on the ATPase activity of the Pgp pump in the luminescence Pgp-Glo™ Assay, according to previously described methods and protocols. In this assay, luminescence was measured. The Pgp-dependent decreases in luminescence reflect the ATP consumption by Pgp. […] Thus, inhibitors give results <100% of the basal activity, while stimulators/substrates cause a statistically significant increase in the basal activity. […].
The luminescent Pgp-Glo™ Assay System used for determination of the arylideneimidazolone influence on P-glycoprotein activity was purchased from Promega (Madison, WI, USA). The assay was performed in triplicate as described previously. […]. For basal P-gp activity calculation, the membranes were incubated with 100 µM of Na3VO4. The luminescence signal was measured by a microplate reader EnSpire PerkinElmer (Waltham, MA, USA). The statistical significances were calculated using GraphPad Prism 8.0.1 software.

ABCB1 efflux pump = ABCB1 efflux pump (Homo sapiens, UniProt P08183); experiment: Rhodamine 123 accumulation assay (flow cytometry); conditions: for FAR Quotient (%): FAR of compound related to FAR of VER tested at 20 µM; for FAR (fluorescence activity ratio): rhodamine 123 accumulation, MDR vs PAR mouse T-lymphoma cells; for efflux pump inhibiting effect relative to verapamil: 20 µM, same concentration as verapamil
Chain of ABCB1 efflux pump (P08183 whole entry): as above
Description: The study was carried out on mouse T-lymphoma cell lines, including the parental sensitive line (PAR) and its multidrug-resistant subline (MDR) transfected with the human MDR1 (ABCB1) gene. […] The fluorescence activity ratio (FAR), as a measure of the efflux pump modulating properties, was calculated based on the fluorescence data obtained [23, 24, 25]. […] The parental L5178 mouse T-cell lymphoma cells and the L5178Y human ABCB1-transfected subline were cultured in McCoy’s 5A medium (Sigma-Aldrich, St Louis, MO, USA) supplemented with 10% heat-inactivated horse serum (Sigma-Aldrich, St Louis, MO, USA), 200 mM L-glutamine (Sigma-Aldrich, St Louis, MO, USA), and a penicillin-streptomycin (Sigma-Aldrich, St Louis, MO, USA) mixture in concentrations of 100 U/L and 10 mg/L, respectively.
The potency of the tested compounds as inhibitors of the ABCB1 efflux pump was determined using a fluorescence-based detection system, described previously in the literature [23, 26]. […] The parental (PAR) and multidrug-resistant (MDR) mouse T-lymphoma cells were adjusted to a density of 2 × 10^6/mL, re-suspended in serum-free McCoy’s 5A medium, and distributed in 0.5 mL aliquots into Eppendorf centrifuge tubes. […] The fluorescence intensity of the cell population was measured with a Partec CyFlow flow cytometer (Partec, Munster, Germany). […] The mean fluorescence intensity (%) was calculated for the treated MDR and PAR mouse T-lymphoma cells as compared to the untreated cells.

[5] = Safety in vitro, MTS assay in HEK-293 cells; type: cell-based, human; conditions: human, HEK-293 cells, 50 µM, read-out: HEK-293 cell viability
Description: (§9) For safety assay, cells were seeded in 96-well plates at a concentration of 1 × 10^4 cells/well and incubated for 24 h at 37 °C in 5% CO2 atmosphere to reach 50% of confluence. Compounds 11, 12, and 18 were diluted into fresh growth medium and added to the cells at the final concentrations of 0.1–100 μM. The positive control DOX (1 μM) was also added and the cells were incubated for 72 h. The MTS (3-(4,5-dimethylthiazol-2-yl)-5-(3-carboxymethoxyphenyl)-2-(4-sulfophenyl)-2H-tetrazolium) reagent (CellTiter 96® AQueous One Solution Cell Proliferation Assay, Promega, Madison, WI, USA) was added next to each well and incubated for 4 h. The absorbance was measured using a microplate reader (EnSpire, PerkinElmer, Waltham, MA USA) at 490 nm to determine the cells’ viability. The statistical significances were calculated using GraphPad Prism 8.0.1 software.

HEK-293 cells = experiment: Safety in vitro, MTS assay in HEK-293 cells; type: cell-based, human; conditions: highest used concentrations (50 and 100 µM), 72 h
Description: as §9

[6] = concentration 20 µM, VER values for assay group 1 / 2

Row | Compound | IC50 at 24 h [1] [µM] | IC50 at 24 h [2] [µM] | selectivity ratio at 24 h [2] | IC50 [3] [µM] | SI (selectivity index), antiproliferative [4] | IC50 [4] [µM] | effect on ABCB1 basal activity (Pgp ATPase) (Pgp (ABCB1) ATPase) | melting point [°C] | FAR Quotient (%) (ABCB1 efflux pump; concentration 2 µM) | FAR (fluorescence activity ratio) (ABCB1 efflux pump; concentration 2 µM) | FAR Quotient (%) (ABCB1 efflux pump; concentration 20 µM) | FAR (fluorescence activity ratio) (ABCB1 efflux pump; [6]) | viability at 72 h, 50 µM [5] [%] | effect on HEK-293 cell viability (HEK-293 cells) | efflux pump inhibiting effect relative to verapamil (ABCB1 efflux pump)
1 | Cl.O=C1N=C(N2CCC(N3CCOCC3)CC2)N/C1=C\c1ccc2c(c1)Cc1ccccc1-2 [Compound 12, (Z)-5-((9H-Fluoren-2-yl)methylene)-2-(4-morpholinopiperidin-1-yl)-imidazol-4(5H)-one hydrochloride] | 15.8 | 30.8 | 0.51 | 12.7 | 0.78 | 16.2 | increased the basal activity | 274 to 276 | 8.88 | 1.161 | 46.23 | 6.045 |  |  | 
2 | Cl.NC1=N/C(=C\c2ccc3c(c2)Cc2ccccc2-3)C(=O)N1CCCN1CCOCC1 [Compound 18, (Z)-5-((9H-Fluoren-2-yl)methylene)-2-amino-3-(3-morpholinopropyl)-imidazol-4(5H)-one hydrochloride] | 16 | 27.8 | 0.58 | 13.4 | 1.24 | 10.8 | increase in basal activity | 261 to 263 | 7.94 | 1.038 | 138.37 | 18.095 | 10.3 | significantly decreased HEK-293 cell viability | ~1.5 fold and 1.38–1.46 fold
3 | Cl.O=C1N=C(N2CCC(N3CCOCC3)CC2)N/C1=C\c1ccc(Oc2ccccc2)cc1 [Compound 11, (Z)-5-(4-Phenoxybenzylidene)-2-(4-morpholinopiperidin-1-yl)-imidazol-4(5H)-one hydrochloride] | 39.1 | 45.5 | 0.86 | 24.8 | 0.97 | 25.6 | increase in basal activity |  | 7.51 | 1.203 | 146.22 | 23.419 | 84.2 | significantly decreased HEK-293 cell viability | ~1.5 fold and 1.38–1.46 fold

Source: paper PMC7249047, “Search for ABCB1 Modulators Among 2-Amine-5-Arylideneimidazolones as a New Perspective to Overcome Cancer Multidrug Resistance” (Molecules, 2020)
